From ChEMBL document CHEMBL3797106, “Potent and Selective Agonists of Sphingosine 1-Phosphate 1 (S1P1): Discovery and SAR of a Novel Isoxazole Based Series” (J Med Chem, 2016)
Activity calls are given as the source filed them. The rule behind the calls is not given here.

Assays:
[1] = target: Sphingosine 1-phosphate receptor 1 (Homo sapiens, UniProt P21453); assay: Agonist activity at human S1P1 receptor expressed in CHO cell membranes after 45 mins by [35S]-GTPgammaS binding assay; format: functional
[2] = target: Sphingosine 1-phosphate receptor 3 (Homo sapiens, UniProt Q99500); assay: Agonist activity at human S1P3 receptor expressed in EDG3-Ga15-bla HEK293T cell membranes after 45 mins by [35S]-GTPgammaS binding assay; format: functional, HEK-293T
Homo sapiens = species on record: Homo sapiens; assay: Selectivity ratio of EC50 for human S1P3 receptor to EC50 for human S1P1 receptor
Rattus norvegicus [3] = assay: Reduction of blood lymphocyte level in Lewis rat at 1 mg/kg, po measured at 4 hrs by hematology analyzer relative to vehicle-treated control; format: functional; parameters: scale not given: the % may be the effect or the level left
[4] = Plasma concentration in Lewis rat at 1 mg/kg, po measured at 4 hrs; format: ADME, organism-based
Rattus norvegicus [5] = assay: Reduction of blood lymphocyte level in Lewis rat at 1 mg/kg, po measured at 24 hrs by hematology analyzer relative to vehicle-treated control; format: functional; parameters: scale not given: the % may be the effect or the level left
[6] = Plasma concentration in Lewis rat at 1 mg/kg, po measured at 24 hrs; format: ADME, organism-based
Plasma = assay: Ratio drug level in Lewis rat plasma at 1 mg/kg, po at 4 hrs to drug level in Lewis rat plasma at 1 mg/kg, po at 24 hrs; format: ADME, organism-based; settings: in vivo
Mus musculus = assay: Reduction in clinical score in C57BL/6 mouse experimental autoimmune encephalomyelitis model of multiple sclerosis at 1 mg/kg, po qd for 24 days started from day of immunization measured 3 times per week of compound dosing; format: functional, organism-based

Sphingosine 1-phosphate receptor 1, sequence (P21453 whole entry): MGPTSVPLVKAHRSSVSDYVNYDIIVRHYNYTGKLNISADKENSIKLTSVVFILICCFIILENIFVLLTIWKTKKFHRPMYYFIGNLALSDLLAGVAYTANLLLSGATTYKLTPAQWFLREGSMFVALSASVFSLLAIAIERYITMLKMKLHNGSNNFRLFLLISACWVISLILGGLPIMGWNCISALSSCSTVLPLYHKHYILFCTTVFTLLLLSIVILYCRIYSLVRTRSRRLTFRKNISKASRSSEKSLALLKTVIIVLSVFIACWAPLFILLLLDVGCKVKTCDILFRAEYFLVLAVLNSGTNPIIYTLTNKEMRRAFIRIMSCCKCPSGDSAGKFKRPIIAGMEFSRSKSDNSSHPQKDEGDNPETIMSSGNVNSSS
Sphingosine 1-phosphate receptor 3, sequence (Q99500 whole entry): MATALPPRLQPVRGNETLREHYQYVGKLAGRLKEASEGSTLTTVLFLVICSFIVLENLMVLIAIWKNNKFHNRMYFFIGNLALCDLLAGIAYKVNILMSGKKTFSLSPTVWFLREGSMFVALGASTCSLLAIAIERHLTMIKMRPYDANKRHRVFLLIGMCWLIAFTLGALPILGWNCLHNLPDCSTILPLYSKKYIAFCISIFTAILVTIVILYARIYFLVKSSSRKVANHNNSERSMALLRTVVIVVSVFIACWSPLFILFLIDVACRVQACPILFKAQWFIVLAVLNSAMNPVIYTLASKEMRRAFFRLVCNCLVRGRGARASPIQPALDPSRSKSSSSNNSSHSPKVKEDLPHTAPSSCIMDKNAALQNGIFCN

| EC50 [1] [nM] | EC50 [2] [nM] | Ratio EC50 (Homo sapiens) | concentration at 4 h [4] [nM] | concentration at 24 h [6] [nM] | Ratio (Plasma) | Structure (SMILES) | Activity (Rattus norvegicus [3]) [%] | Activity (Rattus norvegicus [5]) [%] | Activity (Mus musculus) |
| --- | --- | --- | --- | --- | --- | --- | --- | --- | --- |
| 1.3 | 5100 | 4000 | – | – | – | CC(C)c1c(-c2nc(-c3ccc(CN4CC(C(=O)O)C4)cc3)no2)noc1-c1ccccc1 | – | – | – |
| 0.39 | 6200 | 16000 | 1600 | 280 | 6 | CC(C)Cc1onc(-c2nc(-c3ccc(CN4CC(C(=O)O)C4)cc3)no2)c1C(F)(F)F | 88 | 83 | – |
| 1.7 | 9200 | 5500 | – | – | – | Cc1c(-c2ccccc2)noc1-c1nc(-c2ccc(CN3CC(C(=O)O)C3)cc2)no1 | – | – | – |
| – | – | – | 81 | 5 | 16 | CCCCc1c(-c2nc(-c3ccc(CN4CC(C(=O)O)C4)cc3)no2)noc1-c1ccccc1 | 82 | 60 | – |
| 0.44 | 1000 | 2300 | 170 | 11 | 15 | CCCc1c(-c2ccccc2)noc1-c1nc(-c2ccc(CN3CC(C(=O)O)C3)cc2)no1 | 85 | 82 | – |
| 0.56 | 730 | 1300 | 190 | 30 | 6 | CC(C)Cc1c(-c2nc(-c3ccc(CN4CC(C(=O)O)C4)cc3)no2)noc1-c1ccccc1 | 80 | 82 | – |
| – | – | – | – | – | – | CCCCCCCCc1ccc(CCC(N)(CO)CO)cc1 | – | – | Active |
| 0.54 | 1900 | 3500 | 1400 | 100 | 14 | CC(F)(F)c1c(-c2nc(-c3ccc(CN4CC(C(=O)O)C4)cc3)no2)noc1-c1ccccc1 | 81 | 82 | – |
| 0.44 | 1300 | 2900 | 250 | 7.9 | 31 | CCCc1c(-c2nc(-c3ccc(CN4CC(C(=O)O)C4)cc3)no2)noc1-c1ccccc1 | 85 | 60 | – |
| 0.3 | 850 | 2900 | 1300 | 41 | 33 | CCCc1c(-c2nc(-c3ccc(CN4CC(C(=O)O)C4)cc3)no2)noc1CC(C)C | 86 | 78 | – |
| 0.99 | 130 | 130 | – | – | – | O=C(O)C1CN(Cc2ccc(-c3noc(-c4noc(-c5ccccc5)c4-c4ccccc4)n3)cc2)C1 | – | – | – |
| 44 | 6300 | 150 | 140 | – | – | O=C(O)C1CN(Cc2ccc(-c3noc(-c4cc(-c5ccccc5)on4)n3)cc2)C1 | 22 | 0 | – |
| 5.3 | 2600 | 500 | 520 | 55 | 9 | CC(C)(C)c1c(-c2nc(-c3ccc(CN4CC(C(=O)O)C4)cc3)no2)noc1-c1ccccc1 | 73 | 52 | – |
| 1.6 | 12000 | 7500 | 320 | 29 | 11 | CCc1c(-c2nc(-c3ccc(CN4CC(C(=O)O)C4)cc3)no2)noc1-c1ccccc1 | 76 | 52 | – |
| 25 | – | – | – | – | – | O=C(O)C1CN(Cc2ccc(-c3noc(-c4cc(-c5ccccc5)no4)n3)cc2)C1 | – | – | – |
| 3.2 | 1800 | 540 | – | – | – | O=C(O)C1CN(Cc2ccc(-c3noc(-c4noc(-c5ccccc5)c4C4CC4)n3)cc2)C1 | – | – | – |
| 5 | > 31 | > 6300 | 260 | 6.4 | 41 | Cc1c(-c2nc(-c3ccc(CN4CC(C(=O)O)C4)cc3)no2)noc1-c1ccccc1 | 68 | 0 | – |
| 0.98 | 4100 | 4100 | 1100 | 180 | 6 | O=C(O)C1CN(Cc2ccc(-c3noc(-c4noc(-c5ccccc5)c4C(F)(F)F)n3)cc2)C1 | 84 | 85 | – |
